Experiments:
MEFs = experiment: Cell proliferation assay (CellTiter 96 AQueous); type: cell-based, mouse; conditions: 10 μM, 5 days; same extent as NUAK1-knockout
Protocol: Cell proliferation assays were carried out colorimetrically in 96-well plates using the CellTiter 96® AQueous Non-Radioactive Cell Proliferation Assay kit (Promega) following the manufacturer's protocol. Initially, 2000 cells per well were seeded for U2OS cells and 3000 cells per well were seeded for MEFs. The proliferation assays were carried out over 5 days in the presence or absence of 10 μM HTH-01-015 or WZ4003.

MLK3 = MLK3 (Homo sapiens, UniProt Q16584); experiment: Kinase profiling; type: biochemical; conditions: 0.1 or 1 μM inhibitor; mean of triplicate
Chain of MLK3 (Q16584 whole entry): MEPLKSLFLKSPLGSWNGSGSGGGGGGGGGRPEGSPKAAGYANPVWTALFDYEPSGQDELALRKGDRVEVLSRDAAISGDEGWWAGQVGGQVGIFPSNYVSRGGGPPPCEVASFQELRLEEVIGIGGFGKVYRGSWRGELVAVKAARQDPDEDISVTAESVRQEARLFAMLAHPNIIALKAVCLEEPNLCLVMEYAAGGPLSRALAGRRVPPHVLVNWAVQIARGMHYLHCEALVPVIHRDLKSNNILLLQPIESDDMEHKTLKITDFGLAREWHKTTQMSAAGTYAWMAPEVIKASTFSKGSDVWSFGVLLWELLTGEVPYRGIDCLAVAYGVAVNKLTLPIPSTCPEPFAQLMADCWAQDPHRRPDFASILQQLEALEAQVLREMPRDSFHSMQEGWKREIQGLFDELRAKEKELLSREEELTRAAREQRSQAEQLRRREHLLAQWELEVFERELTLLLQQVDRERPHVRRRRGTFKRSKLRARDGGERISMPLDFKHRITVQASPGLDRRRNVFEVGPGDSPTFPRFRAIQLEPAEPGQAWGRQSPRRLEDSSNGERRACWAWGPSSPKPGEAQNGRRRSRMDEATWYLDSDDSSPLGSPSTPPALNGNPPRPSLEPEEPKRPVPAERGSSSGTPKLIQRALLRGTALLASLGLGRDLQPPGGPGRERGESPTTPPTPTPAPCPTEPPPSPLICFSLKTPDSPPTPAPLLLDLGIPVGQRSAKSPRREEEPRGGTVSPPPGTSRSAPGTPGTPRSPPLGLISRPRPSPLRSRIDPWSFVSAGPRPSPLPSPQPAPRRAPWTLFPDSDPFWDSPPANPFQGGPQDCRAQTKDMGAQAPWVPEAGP
Method in brief: (§1)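 In this specificity profiling, inhibitors at 0.1 or 1 μM were run against 140 protein kinases in vitro. Activity is reported relative to DMSO-treated controls as mean ±S.D. of three reactions.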

CK1δ = CK1δ (Homo sapiens, UniProt P48730); experiment: Kinase profiling; type: biochemical; conditions: 0.1 or 1 μM inhibitor; mean of triplicate
Method in brief: as §1

IR = IR (Homo sapiens, UniProt P06213); experiment: Kinase profiling; type: biochemical; conditions: 0.1 or 1 μM inhibitor; mean of triplicate
Chain of IR (P06213 28-1382): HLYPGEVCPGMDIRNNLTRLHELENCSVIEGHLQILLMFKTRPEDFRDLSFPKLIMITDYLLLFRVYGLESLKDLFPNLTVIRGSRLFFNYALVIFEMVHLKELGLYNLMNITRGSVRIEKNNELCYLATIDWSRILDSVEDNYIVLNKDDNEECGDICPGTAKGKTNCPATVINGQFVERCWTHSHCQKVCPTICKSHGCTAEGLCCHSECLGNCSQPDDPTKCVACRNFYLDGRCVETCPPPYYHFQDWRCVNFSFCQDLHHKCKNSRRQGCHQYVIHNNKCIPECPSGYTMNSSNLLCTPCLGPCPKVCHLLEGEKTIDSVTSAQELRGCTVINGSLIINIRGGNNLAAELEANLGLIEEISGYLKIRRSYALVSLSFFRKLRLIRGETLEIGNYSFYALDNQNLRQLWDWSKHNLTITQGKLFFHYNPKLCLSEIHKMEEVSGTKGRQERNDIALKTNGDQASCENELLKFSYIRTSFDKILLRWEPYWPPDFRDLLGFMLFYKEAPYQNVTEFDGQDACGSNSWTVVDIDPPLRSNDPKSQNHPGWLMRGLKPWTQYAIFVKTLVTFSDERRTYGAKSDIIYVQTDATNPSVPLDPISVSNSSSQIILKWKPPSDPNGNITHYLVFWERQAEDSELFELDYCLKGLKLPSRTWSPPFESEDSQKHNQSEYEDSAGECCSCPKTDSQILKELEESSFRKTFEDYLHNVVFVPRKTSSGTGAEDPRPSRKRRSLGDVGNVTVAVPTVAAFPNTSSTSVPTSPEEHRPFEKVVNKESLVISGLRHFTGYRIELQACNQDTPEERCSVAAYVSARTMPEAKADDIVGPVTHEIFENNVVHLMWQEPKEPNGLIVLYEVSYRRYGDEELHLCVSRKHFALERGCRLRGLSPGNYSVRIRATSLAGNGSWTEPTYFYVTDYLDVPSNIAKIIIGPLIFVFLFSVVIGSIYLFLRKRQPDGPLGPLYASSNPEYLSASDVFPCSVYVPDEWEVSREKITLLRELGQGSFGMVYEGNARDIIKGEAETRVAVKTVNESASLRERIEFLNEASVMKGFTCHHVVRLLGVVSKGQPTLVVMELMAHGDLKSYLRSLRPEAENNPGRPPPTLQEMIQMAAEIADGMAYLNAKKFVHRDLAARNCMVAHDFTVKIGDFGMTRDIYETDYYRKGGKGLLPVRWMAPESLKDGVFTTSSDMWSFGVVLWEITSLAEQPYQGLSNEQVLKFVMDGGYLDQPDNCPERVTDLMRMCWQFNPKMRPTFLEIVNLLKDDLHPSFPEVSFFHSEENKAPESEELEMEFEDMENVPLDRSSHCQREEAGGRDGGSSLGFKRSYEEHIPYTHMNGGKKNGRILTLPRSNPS
Method in brief: as §1

MARK4 = MARK4 (Homo sapiens, UniProt Q96L34); experiment: Kinase profiling; type: biochemical; conditions: 0.1 or 1 μM inhibitor; mean of triplicate
CDK9-Cyc T1 = CDK9-Cyc T1 (Homo sapiens, UniProt P50750); experiment: Kinase profiling; type: biochemical; conditions: 0.1 or 1 μM inhibitor; mean of triplicate
Chain of CDK9-Cyc T1 (P50750 whole entry): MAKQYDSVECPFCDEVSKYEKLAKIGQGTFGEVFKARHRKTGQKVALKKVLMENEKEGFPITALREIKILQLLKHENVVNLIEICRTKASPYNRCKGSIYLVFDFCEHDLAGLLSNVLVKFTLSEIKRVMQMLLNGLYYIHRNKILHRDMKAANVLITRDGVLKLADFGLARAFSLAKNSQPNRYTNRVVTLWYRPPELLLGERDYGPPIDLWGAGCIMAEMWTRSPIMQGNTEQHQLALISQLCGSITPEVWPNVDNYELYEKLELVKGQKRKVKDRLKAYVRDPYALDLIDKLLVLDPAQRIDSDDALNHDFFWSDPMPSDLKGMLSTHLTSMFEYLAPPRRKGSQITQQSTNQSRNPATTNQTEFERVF
Chain of CDK9-Cyc T1 (O60563 whole entry partner): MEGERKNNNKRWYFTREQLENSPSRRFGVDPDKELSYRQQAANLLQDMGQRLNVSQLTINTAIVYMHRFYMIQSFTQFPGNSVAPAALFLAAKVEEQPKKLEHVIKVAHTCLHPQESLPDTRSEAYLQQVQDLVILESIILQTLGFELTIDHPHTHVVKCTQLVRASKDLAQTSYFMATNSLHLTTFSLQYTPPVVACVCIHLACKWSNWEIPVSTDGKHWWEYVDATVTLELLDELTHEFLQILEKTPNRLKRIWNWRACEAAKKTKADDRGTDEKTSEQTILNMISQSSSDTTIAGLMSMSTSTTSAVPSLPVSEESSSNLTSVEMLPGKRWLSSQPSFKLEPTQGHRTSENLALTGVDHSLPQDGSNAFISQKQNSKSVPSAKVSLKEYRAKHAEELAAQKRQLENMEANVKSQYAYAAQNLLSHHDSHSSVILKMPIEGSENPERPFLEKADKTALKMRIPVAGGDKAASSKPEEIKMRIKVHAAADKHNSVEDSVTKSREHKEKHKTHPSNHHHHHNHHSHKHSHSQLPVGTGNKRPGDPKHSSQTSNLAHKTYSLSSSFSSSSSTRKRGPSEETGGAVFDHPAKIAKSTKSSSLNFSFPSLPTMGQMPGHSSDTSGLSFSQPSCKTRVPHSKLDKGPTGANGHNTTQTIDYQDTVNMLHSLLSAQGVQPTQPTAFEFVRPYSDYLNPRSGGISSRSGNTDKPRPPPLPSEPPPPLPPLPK

PAK5 = PAK5 (Homo sapiens, UniProt Q9P286); experiment: Kinase profiling; type: biochemical; conditions: 0.1 or 1 μM inhibitor; mean of triplicate
Chain of PAK5 (Q9P286 whole entry): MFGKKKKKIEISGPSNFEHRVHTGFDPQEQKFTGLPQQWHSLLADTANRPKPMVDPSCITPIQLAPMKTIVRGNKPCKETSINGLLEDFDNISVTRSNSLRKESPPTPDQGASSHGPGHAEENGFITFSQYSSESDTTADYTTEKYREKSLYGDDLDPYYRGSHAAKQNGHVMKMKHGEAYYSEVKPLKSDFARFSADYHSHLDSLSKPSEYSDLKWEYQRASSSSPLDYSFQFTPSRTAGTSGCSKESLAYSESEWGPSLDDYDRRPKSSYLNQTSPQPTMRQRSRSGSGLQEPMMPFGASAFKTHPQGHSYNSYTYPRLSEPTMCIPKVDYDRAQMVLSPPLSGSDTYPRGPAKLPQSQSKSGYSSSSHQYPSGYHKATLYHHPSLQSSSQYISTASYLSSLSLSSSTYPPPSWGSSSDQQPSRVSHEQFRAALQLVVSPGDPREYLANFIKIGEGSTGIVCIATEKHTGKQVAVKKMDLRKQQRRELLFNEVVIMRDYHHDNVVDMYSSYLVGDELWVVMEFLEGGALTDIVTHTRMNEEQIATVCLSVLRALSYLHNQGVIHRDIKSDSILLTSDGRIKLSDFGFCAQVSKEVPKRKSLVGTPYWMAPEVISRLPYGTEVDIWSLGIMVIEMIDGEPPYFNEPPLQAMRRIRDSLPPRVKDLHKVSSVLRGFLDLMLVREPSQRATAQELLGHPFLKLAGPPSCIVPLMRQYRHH
Method in brief: as §1

SmMLCK = SmMLCK (Homo sapiens, UniProt Q15746); experiment: Kinase profiling; type: biochemical; conditions: 0.1 or 1 μM inhibitor; mean of triplicate
Chain of SmMLCK (Q15746 923-1914): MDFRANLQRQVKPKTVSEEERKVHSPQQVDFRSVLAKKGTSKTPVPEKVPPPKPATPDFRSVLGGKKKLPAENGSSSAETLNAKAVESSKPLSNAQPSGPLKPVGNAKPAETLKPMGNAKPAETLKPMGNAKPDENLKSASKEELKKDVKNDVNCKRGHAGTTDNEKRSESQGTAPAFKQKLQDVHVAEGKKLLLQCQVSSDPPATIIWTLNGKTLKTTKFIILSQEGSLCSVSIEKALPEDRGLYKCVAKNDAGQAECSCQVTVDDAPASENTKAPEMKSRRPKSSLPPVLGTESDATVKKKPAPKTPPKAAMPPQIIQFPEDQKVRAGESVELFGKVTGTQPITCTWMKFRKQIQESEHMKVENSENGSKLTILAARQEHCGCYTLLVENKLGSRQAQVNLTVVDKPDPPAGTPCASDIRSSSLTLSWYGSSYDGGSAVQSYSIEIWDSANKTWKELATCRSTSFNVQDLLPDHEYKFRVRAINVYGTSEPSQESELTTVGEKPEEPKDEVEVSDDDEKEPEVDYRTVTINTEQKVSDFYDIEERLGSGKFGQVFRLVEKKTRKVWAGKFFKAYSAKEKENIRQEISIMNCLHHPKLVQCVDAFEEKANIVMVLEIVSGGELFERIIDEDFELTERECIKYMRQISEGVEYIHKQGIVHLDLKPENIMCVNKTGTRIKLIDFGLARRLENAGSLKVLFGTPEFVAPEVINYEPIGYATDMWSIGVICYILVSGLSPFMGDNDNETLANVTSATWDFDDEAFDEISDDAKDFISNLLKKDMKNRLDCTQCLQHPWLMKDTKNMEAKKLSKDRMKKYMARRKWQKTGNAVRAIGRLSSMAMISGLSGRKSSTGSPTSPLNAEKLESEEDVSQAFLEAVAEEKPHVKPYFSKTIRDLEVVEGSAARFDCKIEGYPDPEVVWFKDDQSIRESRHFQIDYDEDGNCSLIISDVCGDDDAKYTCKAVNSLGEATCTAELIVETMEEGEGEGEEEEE
Method in brief: as §1

PKA = PKA (Homo sapiens, UniProt P17612); experiment: Kinase profiling; type: biochemical; conditions: 0.1 or 1 μM inhibitor; mean of triplicate
Method in brief: as §1

TSSK1 = TSSK1 (Homo sapiens, UniProt Q9BXA7); experiment: Kinase profiling; type: biochemical; conditions: 0.1 or 1 μM inhibitor; mean of triplicate
NUAK1+/+ MEFs = experiment: Wound-healing (migration) assay; type: cell-based, mouse; conditions: 10 μM
Protocol: MEFs were split and an approximately equal number of cells were loaded into the left and right chambers of the IBIDI Self-Insertion Inserts (catalogue number 80209). Each insert was placed in one well of a 12-well plate and the cells were seeded with or without treatment with the inhibitors. For the comparison of the migration properties of different MEFs on the same video, a single insert was used and an equal number of MEFs were counted and loaded on either chamber of the same insert. To study the effect of inhibitors on cell migration, wound-healing assays on MEFs were also carried out on separate inserts with or without treatment with a 10 μM concentration of WZ4003 or HTH-01-015. Inhibitors were added to the cells 1 h before the start of the migration assay. The experiments were carried out in triplicate. After overnight incubation at 37°C and 5% CO2, the insert was removed and the migration of cells into the 500 μm gap between the chambers was observed. The wound-gap healing properties of the cells were observed over a period of 15–20 h under a Nikon Eclipse Ti microscope with images taken every 2 min by a Photometrics cascade II CCD (charge-coupled device) camera using Nikon NIS Elements software.

[1] = tested on: MYPT1 Ser445 phosphorylation; experiment: MYPT1 Ser445 phosphorylation, HEK-293 Flp/In T-Rex overexpressing wild-type HA-NUAK1; type: cell-based, human; conditions: HEK-293 expressing wild-type NUAK1; 3–10 μM
Protocol: HEK (human embryonic kidney)-293 and U2OS cells were cultured in DMEM (Dulbecco's modified Eagle's medium) supplemented with 10% FBS, 2 mM glutamine and 1×antibacterial/antimycotic solution. NUAK1^+/+ and NUAK1^−/− MEFs were cultured in DMEM supplemented with 10% (v/v) FBS and 2 mM glutamine, 1×antibacterial/antimycotic solution, 1% (v/v) non-essential amino acids and 1% (v/v) sodium pyruvate. HEK-293 Flp/In T-Rex cell lines were cultured in DMEM supplemented with 10% (v/v) FBS and 2 mM glutamine, 1×antibacterial/antimycotic solution, 100 μg/ml hygromycin and 15 μg/ml blasticidin. Supplementing the culture medium with 0.1 μg/ml doxycycline for 16–24 h induced protein expression in the HEK-293 Flp/In T-Rex cells. Cell counting was carried out using Invitrogen Countess following the manufacturer's protocol. A cell-detachment assay was carried out on HEK-293 cells using PBS-EDTA-based cell dissociation buffer as described previously. An inhibitor dose-dependence assay was carried out by treating the cells with various concentrations of the inhibitors as indicated in the Figure legends. The inhibitors were dissolved in DMSO and the total concentration of DMSO in the culture media never exceeded 1%. Transient transfections of HEK-293 cells were carried out using PEI [24]. Stable transfections were carried out in HEK-293 Flp/In T-Rex cells (Invitrogen) following the manufacturer's protocol. […]

| SMILES | Proliferation of MEFs (in words) (MEFs) | MLK3 activity, percentage of DMSO control (MLK3) [percentage] | CK1δ activity, percentage of DMSO control (CK1δ) [percentage] | IR activity, percentage of DMSO control (IR) [percentage] | MARK4 activity, percentage of DMSO control (MARK4) [percentage] | CDK9-Cyc T1 activity, percentage of DMSO control (CDK9-Cyc T1) [percentage] | PAK5 activity, percentage of DMSO control (PAK5) [percentage] | SmMLCK activity, percentage of DMSO control (SmMLCK) [percentage] | PKA activity, percentage of DMSO control (PKA) [percentage] | TSSK1 activity, percentage of DMSO control (TSSK1) [percentage] | Cell migration in wound-healing assay (in words) (NUAK1+/+ MEFs) | Suppression of MYPT1 phosphorylation (in words) [1] |
| --- | --- | --- | --- | --- | --- | --- | --- | --- | --- | --- | --- | --- |
| Cc1nc(Nc2cnn(C3CCNCC3)c2)nc2c1N(C)C(=O)c1cc3ccccc3cc1N2C [HTH-01-015] | suppressed proliferation | 94 | 94 | 105 | 75 | 68 | 95 | 77 | 101 | 95 | markedly reduced cell migration | markedly suppressed |
| CCC(=O)Nc1cccc(Oc2nc(Nc3ccc(N4CCN(C)CC4)cc3OC)ncc2Cl)c1 [WZ4003] | suppressed proliferation |  |  |  |  |  |  |  |  |  | markedly reduced cell migration | markedly suppressed |

From article PMC3969223, “Characterization of WZ4003 and HTH-01-015 as selective inhibitors of the LKB1-tumour-suppressor-activated NUAK kinases” (Biochemical Journal, 2013)
